One series has as its system rats. Particulars: cited from earlier work.
Series [1] can be described thus: in vivo. Conditions: Wistar, rat. The protocol:
Each type of formulation was administered to a group of four rats.
In particular, 4.2 mL of EU-CD formulation were administered to rats (500 mg/kg dose).
In particular, 320 μL of EU-SL formulation were administered to rats (500 mg/kg dose).
Free cinnamaldehyde (100 mg) was orally administered by gavage to rats kept fasting since 24 h. In particular, 95 μL of cinnamaldehyde (density = 1.05 g/mL) were dissolved in 905 μL of corn oil and administered to rats (400 mg/kg dose).
The solid AC-GN formulation (14% w/w cinnamaldehyde) was mixed with palatable food in order to induce their oral intake by the rats kept fasting since 24 h. In particular, the rats assumed a dose of 100 mg of cinnamaldehyde (400 mg/kg) contained in 714 mg of AC-GN.
After the administrations, blood (100 μL) and CSF samples (50 μL) were serially collected at fixed time points from each rat and treated as described above in order to quantify the compounds.
(§1) In particular, all the AUC values referred to the bloodstream were calculated by the trapezoidal method within the last time point detected, and the remaining area was obtained as the ratio between the compound concentration detected at the last time point and the elimination constant (kel), which was obtained from the slope of the semilogarithmic plots (−slope × 2.3). The clearance (Cl) and distribution volume (Vd) values were calculated according to the non-compartmental model as the ratios “dose/AUC” and “Cl/kel”, respectively, where kel is the elimination constant obtained by the slope of semilogarithmic plot.

A short description of series [2]: in vivo. As to the method: A saline solution (0.9% NaCl) was added to a mixture of cinnamaldehyde (density = 1.05 g/mL) and Cremophor® RH 40 (1:1 v/v) in order to obtain a 12.5 mg/mL cinnamaldehyde emulsion in the presence of ethanol (10% of final volume). A group (n = 4) of male Wistar rats (200–250 g) fasted for 24 h was anesthetized during the experimental period and received 0.4 mL via a femoral intravenous infusion (rate = 0.2 mL/min; 2 min) of 12.5 mg/mL cinnamaldehyde emulsion (20 mg/kg cinnamaldehyde dose).
At the end of the infusions and at fixed time points, CSF samples (50 μL) were withdrawn and blood samples (100 μL) were collected. The CSF was withdrawn using the cisternal puncture method described by van den Berg et al., which requires a single needle stick and allows the collection of serials (40–50 μL) CSF samples that are virtually blood-free. A total volume of about a maximum of 150 μL of CSF/rat (i.e., three 50 μL samples/rat) was collected during the experimental session, choosing the time points (n = 3–5, taking into account a maximum of three collections per rat) in order to allow the restoring of the CSF physiological volume.
The samples were centrifuged at 12,500× g for 5 min, then about 300 μL of supernatant were withdrawn and further centrifuged. […] As a control, a blood sample (100 μL) was collected by each rat before the administrations of the drugs. The control samples were immediately added to 300 μL of ice-cold CH3CN in the absence of internal standard, then treated as described above.
For cinnamaldehyde analysis the blood samples were hemolyzed immediately after their collection with 500 μL of ice-cold water, and then 50 μL of 10% sulfosalicylic acid and 50 μL of internal standard (100 μM carbazole dissolved in a water-methanol mixture 50:50 v/v) was added. The samples were extracted twice with 1 mL of water-saturated ethyl acetate, and, after centrifugation at 12,500× g for 10 min, the organic layer was reduced to dryness under a mild nitrogen stream at room temperature. Then, 200 μL of a water-acetonitrile mixture (50:50 v/v) were added, and after centrifugation, 10 μL were analyzed via HPLC (see below) for cinnamaldehyde detection. As a control, a blood sample (100 μL) was collected by each rat before the administration of the drug. The control samples were treated as described above in the absence of internal standard.
as §1
The chromatographic apparatus consisted of a modular system (model LC-10 AD VD pump and model SPD-10A VP variable wavelength UV−vis detector; Shimadzu, Kyoto, Japan) and an injection valve with 20 μL sample loop (model 7725; Rheodyne, IDEX, Torrance, CA, USA). Separations were performed at room temperature on a 5 μm Hypersil BDS C-18 column (150 mm × 4.6 mm i.d.; Alltech Italia Srl, Milan, Italy) equipped with a guard column packed with the same Hypersil material. The volume injection was 10 μL. Data acquisition and processing were performed on a personal computer using CLASS-VP Software, version 7.2.1 (Shimadzu Italia, Milan, Italy).
The detector was set at 205 nm.

In a further series the test system is PC12 cells. The series is described as follows: MTT cell viability assay in neuronal differentiated PC12 cells. It is filed as cell-based, rat. Conditions: 2 h. The protocol:
PC12 cell line (RRID:CVCL_0481), derived from rat adrenal gland pheochromocytoma, was a kind gift from Dr Federica Brugnoli from the Department of Translational Medicine, University of Ferrara, Ferrara (Italy). The cells were grown in RPMI-1640 (HiGlutaXL) medium (Microtech, Naples, Italy), supplemented with 100 µg/mL streptomycin and 100 IU/mL penicillin, 10% horse serum (HS), and 5% fetal bovine serum (FBS). PC12 cells were gently removed from the 4 µg/cm^2 collagen IV-coated flask with a rubber scraper, transferred as cell suspension into a Falcon tube and resuspended through a sterile tip to avoid any clumping, then split into separate flasks twice weekly. To differentiate neuronal phenotypes, PC12 cells were seeded in 4 µg/cm^2 collagen IV-coated 12-well plates at a density of 5000 cells/well, and they were then left to adhere to the well for 24 h. […] All the proliferative and differentiated cultures were maintained at 37 °C in a humidified 5% CO2 atmosphere.
The 100% of cell viability was stated as control in the absence of compound. Then, incubation buffer was withdrawn, and 0.2 mL per well of a solution of MTT 500 µg/mL was added to each well and kept for 2 h at 37 °C in a humidified atmosphere at 95% with 5% CO2. After the conversion of the substrate to a chromogenic product by metabolically active cells, the MTT solution was removed, and the purple MTT formazan crystals were solubilized with 0.1 mL/well of DMSO for 60 min at 37 °C. The absorbance of each sample was measured with a multiplate reader spectrophotometer (Sunrise® Microplate Reader, Tecan Trading AG, Männedorf, Switzerland) at 570 nm, using 690 nm as a reference wavelength. Cell viability, proportional to absorbance, was reported as ratio between the absorbance resulting from the treatments and absorbance resulting from the control, considered as 100% of viable cells. Data were plotted as graphs and analyzed using GraphPad software (Prism, version 7.0, San Diego, CA, USA).

[3] abbreviates: male, Wistar, rat, in vivo, iv, 20 mg/kg.

Structures are written as SMILES.

What is called bioavailability is dose-corrected exposure relative to a reference, in per cent. Lower therefore signals little systemic uptake. Usually Vd stands for the apparent volume that relates the amount in the body to the concentration in plasma or blood. One may read the clearance as the volume of plasma or blood freed of the substance per unit of time. The half-life is the time needed for the level to fall by half in the phase considered. A low value points to fast loss.

Regarding `C=CCc1ccc(O)c(OC)c1` [Eugenol], the “oral LD50” value in the series with rats (oral) is “about 2 g/kg”. The “intravenous doses inducing anesthetic effects without relevant side effects” value in the series with rats (rat, in vivo, iv) was “up to 60 mg/kg”. Besides, in the series “in vivo [1]”, the “Tmax: time of Cmax in the bloodstream” value was found to be 10 min. This compound also displayed a bioavailability in “in vivo [1]” (po, F: absolute bioavailability, oral versus iv AUC normalized to dose) of 4%. Moreover, in the series “in vivo [2]” (male, Wistar, rat, in vivo, iv), the Vd came to 3.21 ± 0.247 L/kg, the clearance amounted to 114 ± 2 mL/min/kg and the half-life worked out at 19.4 ± 2.1 min. In the series “in vivo [2]” (setting [3]), this compound gave a concentration at 5 min of 3600 ± 200 ng/mL and a concentration at 10 min of 2900 ± 100 ng/mL. In the series “in vivo [2]” (male, Wistar, rat, in vivo, iv, kel: pseudo first order kinetic elimination rate constant, rat blood, iv 20 mg/kg (eugenol, cinnamaldehyde), 100 mg/kg (D-limonene), eugenol value terminal), this compound had a k el of 0.0006 s⁻¹. Also, the “C0: concentration in the bloodstream at the end of infusion” value in “in vivo [2]” (rat blood, iv infusion 2 min, 20 mg/kg eugenol and cinnamaldehyde, 100 mg/kg D-limonene, mean ± SE, n = 4) came out at 16500 ± 200 ng/mL. In addition, the “increase of cell viability over the untreated cell value” in the series with PC12 cells (25 µM, 37 °C, NGF-differentiated PC12) is 2.5 times. For the same compound, the “effect on cell viability compared to untreated control” value with PC12 cells (2, 25, 50 and 100 µM, p < 0.0001, no toxic impact) was “statistically significant increase in cell viability”. Further, the “most effective concentration in increasing cell viability” value in the series with PC12 cells (tested 2, 25, 50 and 100 µM) was found to be 25 µM.
